Test: in vitro
Conditions: human, hela cells, % viability

SMILES	viability at 28.5 h, 10 µM [%]
Cc1cc2cc(C(=O)NCCCN3Cc4ccccc4C3)ccc2o1 [CBK282624]	97.4
C=C(C)CN1CCN(C(=O)c2c(C)oc3ccc(O)cc23)CC1 [CBK282626]	95
Cc1oc2ccc(O)cc2c1C(=O)N(C)C(C)Cc1ccccn1 (stereo not drawn) [CBK282627]	96.2
Cc1nc2ccc(C(=O)NC(C)(C)CN3CCCC(C)C3)cc2[nH]1 (stereo not drawn) [CBK282629]	85.3
CS(=O)(=O)N1CC=CC1C(=O)NCCCc1ccc(F)cc1 (stereo not drawn) [CBK282631]	85.5
COC(=O)CCn1c(-c2ccccn2)cc2cccnc21 [CBK282634]	89.8
C=CCC1(CC=C)CCN1C(=O)c1sc2ncn(C)c(=O)c2c1C [CBK282637]	84.7
C=C(C)CN1CCN(C(=O)C2Cc3cc(Cl)ccc3O2)CC1 (stereo not drawn) [CBK282639]	89
CN(CCN1CCCCC1)C(=O)C1Cc2cc(Cl)ccc2O1 (stereo not drawn) [CBK282640]	95.4
CC(C)N1CCC(CNC(=O)c2cccc(N3CCCC3=O)c2)CC1 [CBK282641]	104
Cc1ccn(CCNC(=O)c2cccc(N3CCCC3=O)c2)n1 [CBK282642]	105
CC(C)c1cc(C(=O)NC(C)(C)CN2CCCCC2C)n(C)n1 (stereo not drawn) [CBK282644]	96.4
CN(C)CC(C)(C)CN1C2CCC1CC(O)(c1ccccc1F)C2 (stereo not drawn) [CBK282648]	94.4
Cn1cncc1CN1C2CCC1CC(O)(c1ccccc1F)C2 (stereo not drawn) [CBK282649]	107
CCC(CC(=O)NCc1c(C)n[nH]c1C)c1c[nH]c2ccccc12 (stereo not drawn) [CBK282651]	87.1
O=C(NCCCc1ccccn1)c1cc(-c2cccs2)no1 [CBK282652]	63.9
Cc1cccc(-c2noc(C)c2C(=O)NCCn2ccc(C)n2)c1 [CBK282656]	96.4
CCC(NC(=O)CCN1Cc2ccccc2C1=O)c1ccc(F)cc1 (stereo not drawn) [CBK282657]	104
CCOc1ccc2[nH]c3c(c2c1)CN(C(=O)C1(C)CCCO1)CC3 (stereo not drawn) [CBK282659]	86.2
CC1(C(=O)N2CCc3onc(-c4ccccc4F)c3C2)CCCO1 (stereo not drawn) [CBK282660]	88.1
C=CCC1(CC=C)CCN1C(=O)Cc1c(C)nc(SC)[nH]c1=O [CBK282661]	86.9
CCn1cc(CN2C3CCC2CC(O)(c2ccccc2F)C3)cn1 (stereo not drawn) [CBK282662]	86.5
CCn1ncc(CN2C3CCC2CC(O)(c2ccccc2F)C3)c1C (stereo not drawn) [CBK282663]	85
CCn1cc(CC(=O)NCCn2ccc(C)n2)c2ccccc21 [CBK282670]	96.7

SMILES	viability at 28.5 h, 10 µM [%]
CCc1cccc2c(CC(=O)N(C)CCN(C)C)c(C)[nH]c12 [CBK282673]	102
Cc1ccc2[nH]c(C)c(CC(=O)N(C)CCN(C)C)c2c1 [CBK282674]	105
Cc1nn(CCC(=O)NC(C)(C)CN2CCCC(C)C2)c(C)c1C (stereo not drawn) [CBK282676]	91.4
O=C(CSc1nccc2ccccc12)NC1CCCOC1 (stereo not drawn) [CBK282677]	85.2
Cc1ccn(CCNC(=O)CSc2nccc3ccccc23)n1 [CBK282678]	104
Cc1ccn(CCNC(=O)c2cc(-c3cccs3)no2)n1 [CBK282679]	78.9
CN(C)[C@@H]1CN(C(=O)C2CC2)C[C@H]1c1cn(C)c2ccccc12 [CBK282681]	110
CC(C)N(C(=O)Cn1c(-c2ccco2)cc2cccnc21)C(C)C [CBK282682]	99.4
CC(C)c1cc(C(=O)NCCN2CCc3ccccc32)n(C)n1 [CBK282685]	86.7
CC(C)N1CCCC(CNC(=O)C2Cc3cc(Cl)ccc3O2)C1 (stereo not drawn) [CBK282686]	92.8
CC1CCCCN1C(=O)CCn1c(-c2ccncc2)cc2cccnc21 (stereo not drawn) [CBK282689]	105
Cc1oc2ccc(O)cc2c1C(=O)N(C)CCOc1ccccc1 [CBK282696]	111
CCOc1ccc2[nH]c(C(=O)N(C)CCN3CCCCC3)c(C)c2c1 [CBK282699]	86.3
CC(C)C(NC(=O)C1C=CCN1S(C)(=O)=O)c1cccs1 (stereo not drawn) [CBK282701]	82.5
CC(=O)N1c2ccc(NC(=O)C3(C)CCCO3)cc2CC1C (stereo not drawn) [CBK282702]	98.5
O=C(Cc1ccc2c(c1)CCC2)N1CCCCC1CN1CCOCC1 (stereo not drawn) [CBK282704]	88.8
CC(C(=O)N1CCC(c2cc3cccnc3[nH]2)CC1)N1CCCC1=O (stereo not drawn) [CBK282705]	105
CCC(C(=O)NCC1CCCN(C(C)C)C1)n1cnc2ccccc21 (stereo not drawn) [CBK282706]	88.6
CC(NC(=O)c1cccc(-n2cnnc2)c1)c1ccc2c(c1)CCC2 (stereo not drawn) [CBK282707]	91.9
Cc1ccn(CCNC(=O)Cn2c3c(c4ccccc42)CCC3)n1 [CBK282708]	86.5
O=C(NCCCc1ccc(F)cc1)c1cccc(-n2cnnc2)c1 [CBK282713]	102
O=C1CC2(CCNCC2)Oc2c1ccc1ccccc21 [CBK282714]	93
Cc1ccc2c(c1)C(=O)CC1(CCC3C(C(=O)NC4CCCC4)C31)O2 (stereo not drawn) [CBK282716]	83.4
c1csc(-c2cc3cccnc3n2CCN2CCOCC2)c1 [CBK282718]	80.5

SMILES	viability at 28.5 h, 10 µM [%]
C=CCNC(=O)Cn1c(-c2ccco2)cc2cccnc21 [CBK282719]	82.6
COCCNC(=O)Cn1c(-c2ccco2)cc2cccnc21 [CBK282720]	80.6
Clc1ccc(C2(N3CCC(N4CCOCC4)CC3)CC2)cc1 [CBK282722]	90.8
Cc1[nH]c2c(C)cccc2c1CC(=O)N(C)CCN(C)C [CBK282724]	82.6
Cc1nc(-c2ccccc2)c(CC(=O)N(C)CCN(C)C)s1 [CBK282725]	83.3
Cc1[nH]c2ccc(F)cc2c1CC(=O)N(C)CCN(C)C [CBK282726]	84.1
Cc1cc(C)c2[nH]c(CC(=O)N(C)CCN(C)C)nc2c1 [CBK282727]	74.3
CN(CCN1CCCCC1)C(=O)C1CC(=O)Nc2ccccc21 (stereo not drawn) [CBK282729]	105
Cc1cc(C)c2[nH]c(C)c(CC(=O)N(C)CCN(C)C)c2c1 [CBK282731]	82.5
CCn1cc(CN2CCC(O)(c3ccc(C)cc3)CC2)cn1 [CBK282735]	85.7
Cc1ccc(C2(O)CCN(Cc3cnn(C)c3C)CC2)cc1 [CBK282736]	96.5
Cc1ccccc1-n1nc(C)c(CN2CCC(O)C(C)C2)c1C (stereo not drawn) [CBK282739]	84.2
Cc1ccccc1C(=O)N1C2CCC1CC(O)(Cn1ccnc1C)C2 (stereo not drawn) [CBK282740]	90.1
CCn1cc(CN2C3CCC2CC(O)(c2ccc(F)cc2)C3)cn1 (stereo not drawn) [CBK282741]	77.3
C=Cn1cc(CN2C3CCC2CC(O)(c2ccc(F)cc2)C3)c(C)n1 (stereo not drawn) [CBK282742]	80.6
Cc1cc2c(cc1C)C(O)CC1(CCN(C(=O)C3CCCC3)CC1)O2 (stereo not drawn) [CBK282743]	81.5
COc1ccccc1C1(NCc2cnn(C)c2)CCCC1 [CBK282744]	97
CCCC(NC(=O)c1cccc(-n2cnnc2)c1)c1cccs1 (stereo not drawn) [CBK282745]	102
Cc1ccc2c(CC(=O)N(C)CCN3CCCCC3)coc2c1 [CBK282747]	80.5
Cc1[nH]c2ccc(F)cc2c1CC(=O)N(C)CCN1CCCCC1 [CBK282748]	84.3
Cc1ccc2[nH]c(C)c(CC(=O)N(C)CCN3CCCCC3)c2c1 [CBK282749]	87.8
Cc1ccc(C2(O)CCN(Cc3cn(C)nc3C)CC2)cc1 [CBK282753]	107
CCn1ncc(CN2C3CCC2CC(O)(c2cccc(F)c2)C3)c1C (stereo not drawn) [CBK282754]	91.6
CCn1ncc(S(=O)(=O)N2CCCC(c3ccccc3)C2)c1C (stereo not drawn) [CBK282760]	100

SMILES	viability at 28.5 h, 10 µM [%]
CCn1ncc(S(=O)(=O)Nc2ccc3c(c2)cc(C)n3C)c1C [CBK282761]	95.6
O=C(NC1(c2ccc(Cl)cc2)CC1)C1CCS(=O)(=O)C1 (stereo not drawn) [CBK282765]	75.3
Cc1nn(C)cc1S(=O)(=O)NCC1(c2ccccc2)CCCC1 [CBK282766]	85.9
CCn1cc(S(=O)(=O)NC2(c3ccccc3)CCCC2)cn1 [CBK282767]	90.6
CCn1cc(S(=O)(=O)NCC2(c3ccccc3)CCCC2)cn1 [CBK282768]	97.2
CN(C)CCN(Cc1cccnc1)C(=O)Cc1ccc2c(c1)CCC2 [CBK282770]	109
Cc1cc(CNS(=O)(=O)N2CCCC2)c2[nH]c(C)c(C)c2c1 [CBK282772]	95.1
Cc1cnc(C(=O)NC2(c3ccc(Cl)cc3)CCC2)cn1 [CBK282775]	95.2
NC(=O)Cn1cc(CNC2(c3ccccc3)CC2)c2ccccc21 [CBK282776]	94.9
OCCN(Cc1ccncc1)CC1(c2ccc(Cl)cc2)CC1 [CBK282782]	90.7
Cc1nn(C)cc1S(=O)(=O)N1CCn2cccc2C1C(C)C (stereo not drawn) [CBK282787]	99.8
Cc1nn(C)cc1S(=O)(=O)Nc1cccc(-c2ccc(F)cc2)c1 [CBK282788]	103
CCn1c(C)cc2cc(NS(=O)(=O)c3cn(C)nc3C)ccc21 [CBK282789]	93.5
CCC(CN1CCN(C)CC1)NC(=O)Cc1coc2cc(C)ccc12 (stereo not drawn) [CBK282790]	102
Cc1nc2sccn2c1CN1CCC(O)(c2ccc(F)cc2)CC1 [CBK282792]	98.2
c1ccc(C2(CN3CCN(Cc4cccnc4)CC3)CC2)cc1 [CBK282793]	117
CCCOC1CCCN(Cc2cn(CC(N)=O)c3ccccc23)C1 (stereo not drawn) [CBK282796]	105
CCCOC1CCCN(Cc2c(C)n(CC(N)=O)c3ccccc23)C1 (stereo not drawn) [CBK282797]	99.2
CC(C)(CN1CCCC1)CN1CCC(O)(c2ccccc2F)CC1 [CBK282798]	93.4
Cc1nc(CN2CCC(O)(c3ccccc3F)CC2)c2ccccn12 [CBK282799]	98.1
Cc1nn(C)c(Cl)c1S(=O)(=O)NC1(c2ccc(F)cc2)CC1 [CBK282800]	97.5

Source: paper PMC12040169 (PLOS Biology, 2025)
